Results from patent US5922871A, “Terephthalamide derivatives” (Dongwha Pharmaceutical Ind. Co., Ltd., priority 1997, dated 1999).

What was measured:
[1] = molecular target: T1, HIV reverse transcriptase (HIV-RT) (Human immunodeficiency virus type 1 group M subtype B, UniProt P04585); experiment: in vitro inhibition test against HIV reverse transcriptase; type: biochemical, HIV (AIDS virus); conditions: read-out: Inhibitory effect of HIV-RT; for inhibition at 0.1 µg/mL: 0.1 μg/ml; for inhibition at 1 µg/mL: 1 μg/ml
T1 construct: purchased Boehringer Mannheim
Description: Experiment 3: The in vitro inhibition test against HIV reverse transcriptase
The inhibitory activity in vitro was measured using a non-radioactive reverse transcriptase assay Kit (Boehringer Mannheim).
At first, 20 μl(40 ng) HIV-RT was added to the wells coated with streptavidin and with the addition of 20 μl, reaction mixture containing template/primer hybrid poly(A)/oligo(dT)15 and DIG-(digoxigenin)-dUTP, biotin-dUTP and TTP, 20 μl test compound was added and reacted at 37° C. for 1 hour. The control without test compound was used for the comparison of related activity. Since DNA containing nucleotide labeled with digoxigenin and biotine was prepared by the action of HIV-RT, it was combined with streptavidin coated at the bottom of the wells. After the reaction was completed, remaining impurities were removed by washing each well with 20 μl buffer solution (pH 7.0) for 30 seconds 5 times and with the addition of 200 μl anti-DIG-POD antibody, the mixture was reacted at 37° C. for 1 hour. For the removal of remaining impurities again, the reacting solution was washed with a buffer solution and with the addition of 200μl ABTS™ each, a substrate of POD(peroxidase), the solution was reacted at room temperature for 30 minutes. The absorbance was read by ELISA reader at 405 nm for the assay of reverse transcriptase activity and its inhibition activity.

[2] = molecular target: T2, RNase H of HBV polymerase (HBV-RNase H) (Hepatitis B virus ayw/France/Tiollais/1979, UniProt P03156); experiment: inhibitory effects against RNase H activity of HBV polymerase; type: biochemical; conditions: read-out: Inhibitory effect of HBV-RNase H; for inhibition at 0.1 µg/mL: 0.1 μg/ml; for inhibition at 1 µg/mL: 1 μg/ml
T2 construct: amylose/maltose step implies MBP fusion
T2 sequence (P03156 680-832): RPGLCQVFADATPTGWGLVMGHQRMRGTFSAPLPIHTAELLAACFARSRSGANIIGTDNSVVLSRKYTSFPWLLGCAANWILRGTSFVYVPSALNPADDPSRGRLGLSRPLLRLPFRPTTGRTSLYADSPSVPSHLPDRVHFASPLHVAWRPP
Description: Experiment 2: The inhibitory effects against RNase H activity of HBV polymerase.
1) Expression of the RNase H domain derived from human HBV polymerase
E.coli NM 522 was transformed by the expression vector pMRH respectively and the transformants were cultured in LB medium at 37° C., overnight. These growing cultures were diluted 1:100, inoculated into a glucose rich medium and incubated until OD600 reached 0.5. Then IPTG (isopropylthiogalactoside) was added into the medium of which the fine concentration was 0.5 mM. The above growing cultures were incubated again at 20° C. for 16 hours and the RNase H domain was expressed.
The above cultured broth was centrifuged for 10 minutes at 3,000 rpm and the cell pellet was washed with 10 ml of TNE column buffer (10 mN Tris-Cl, pH 8.0, 200 mM NaCl, 1 mM EDTA), and resuspended in 10 ml of TNE column buffer. The cells were freezed and thawed 4 times repeatedly, and then disrupted by sonication for 10 seconds 3 times. The crude extract prepared in the above process was centrifuged for 30 minutes at 13,000 rpm, 4° C. and the supernatant was separated. The above process was repeated 2 times and then the supernatant passed the amylose resin. The resin was washed by using column buffer with 50 times of resin volume, and the RNase H domain was eluted by using buffer containing 10 mM maltose.
In addition, the RNase H domain produced from the expression vector pMRH was purified by using histidine tag affinity column, because RNase H has a histidine tag at the C-terminus. The resin (Ni-NTA, QIAGEN) used in the histidine tag affinity column was activated by using sonication buffer (50 mM sodium phosphate, pH 8.0, 300 mM sodium chloride) and 4~5 ml of the activated resin was charged in the glass tube whose diameter was about 1 cm. The protein sample obtained from above description passed the resin at the 0.1 ml/ min flow rate and the column was washed by using washing buffer with the 100~200 times volume of protein sample (50 mM sodium phosphate, pH 6.0, 300 mM sodium chloride, 10% glycerol). The recombinant protein was eluted by washing the column with concentration gradient of 0.01~0.5 M imidazole.
As a result, the active RNase H domain was separated from the histidine tag affinity column at 30 mM concentration of imidazole. The purified RNase H domain was mixed with 50% glycerol for storage at -20° C. after the removal of imidazole from it and employed fol the screening of HBV inhibitors.
2) Preparation of the substrate of the RNase H enzyme
In order to identify the RNase H activity, RNA/DNA complex which can be used as a substrate of the RNase H enzyme was prepared by performing in vitro transcription with […].
3) Screening of active inhibitors against RNase H
The RNase H activity was measured by using recombinant RNase H enzyme and radiolabled RNA/DNA hybrid. In order to measure the RNase H activity, 1 μg of RNase H enzyme and test compound were mixed with buffer solution containing 40 mM Tris-Cl (pH 8.0), 4 mM magnesium chloride, 40 mM potassium chloride and 2 mM DTT. The mixture was pretreated on ice for 10 minutes. After pretreatment is completed, RNA/DNA hybrid was added to incubate at 37° C. for 3 hours. After the reaction was stopped, 7.5 M ammonium acetate in a volume of 1/2 and ethanol in a 3-fold volume were added. The above reaction mixture was incubated at -20° C. for more than 2 hours and centrifuged for 15 minutes at 4° C., 13,000 rpm. The supernatant was obtained and the radioactive signal of supernatant was measured by scintillation counter.
As a control, water was added instead of test compound and the inhibitory activity was calculated to compare with the control, when the radioactivity intensity on each test compound, was obtained.

[3] = molecular target: T3, HBV polymerase reverse transcriptase (HBV-RT) (Hepatitis B virus genotype D subtype ayw, UniProt P03156); experiment: inhibitory activity against HBV polymerase in vitro (reverse transcriptase activity); type: biochemical; conditions: read-out: Inhibitory effect of HBV-RT; for inhibition at 0.1 µg/mL: 0.1 μg/ml; for inhibition at 1 µg/mL: 1 μg/ml
T3 construct: made in house; host or cells: E. coli
T3 sequence (P03156 whole entry): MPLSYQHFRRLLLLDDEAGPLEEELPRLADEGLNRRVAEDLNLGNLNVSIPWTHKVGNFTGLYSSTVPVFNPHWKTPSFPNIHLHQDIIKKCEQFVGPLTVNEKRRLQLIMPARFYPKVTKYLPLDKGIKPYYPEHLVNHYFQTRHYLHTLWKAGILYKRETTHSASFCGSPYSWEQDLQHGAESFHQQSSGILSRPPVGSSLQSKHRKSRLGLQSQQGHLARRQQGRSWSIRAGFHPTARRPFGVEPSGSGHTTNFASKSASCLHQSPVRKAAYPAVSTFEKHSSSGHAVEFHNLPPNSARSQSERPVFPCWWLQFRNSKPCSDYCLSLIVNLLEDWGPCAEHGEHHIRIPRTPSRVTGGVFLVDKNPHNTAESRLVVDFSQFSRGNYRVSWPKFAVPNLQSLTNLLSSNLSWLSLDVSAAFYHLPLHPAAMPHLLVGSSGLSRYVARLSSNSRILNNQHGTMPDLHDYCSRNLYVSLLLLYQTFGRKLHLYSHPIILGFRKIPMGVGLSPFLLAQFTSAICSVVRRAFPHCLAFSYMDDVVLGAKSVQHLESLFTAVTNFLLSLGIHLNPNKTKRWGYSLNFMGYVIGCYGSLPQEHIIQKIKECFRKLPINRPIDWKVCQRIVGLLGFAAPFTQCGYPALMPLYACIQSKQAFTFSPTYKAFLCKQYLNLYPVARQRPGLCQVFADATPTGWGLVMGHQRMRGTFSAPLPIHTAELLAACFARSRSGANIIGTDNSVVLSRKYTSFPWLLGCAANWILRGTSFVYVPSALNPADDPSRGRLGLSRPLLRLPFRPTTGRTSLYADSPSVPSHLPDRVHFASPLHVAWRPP
Excerpt: Experiment 1: The inhibitory activity against HBV polymerase in vitro.
Recently, the inventors of the present invention have produced a recombinant HBV polymerase that is expressed from E.coli transformant, measured its enzyme activity and filed patent applications thereof [Korean Patent Application Nos. 94-3918, 96-33998 and 96-63255].
The inventions have established a method of measuring the reverse transcriptase activity of HBV polymerase in vitro. The fundamental principle is the same as the ELISA method, and after reacting the substrate with biotin- and DIG-modified nucleotide, a method of recognizing the polymerized substrate as anti-DIG antibody with peroxidase was used. […] and 20 μ of test compound were mixed and reacted at 14~30° C. for 18~24 hours. Then, the inhibitory effect of test compound against reverse trascriptase activity in the HBV polymerase was examined, compared with the results of control tests without the test compound.

Structure (SMILES)	inhibition at 0.1 µg/mL [1] [%]	inhibition at 1 µg/mL [1] [%]	inhibition at 0.1 µg/mL [2] [%]	inhibition at 1 µg/mL [2] [%]	inhibition at 0.1 µg/mL [3] [%]	inhibition at 1 µg/mL [3] [%]
CC(C)Nc1cccnc1N1CCN(C(=O)c2ccc(C(=O)N3CCNCC3)cc2)CC1 [Compound No. 19, 1-[4-[1-[3-(Isopropylamino)-2-pyridyl]piperazin-4-yl-carbonyl]benzoyl]piperazine]	43	52	38	53	–	–
CC(C)Nc1cccnc1N1CCN(C(=O)c2ccc(C(=O)N(CCO)CCO)cc2)CC1 [Compound No. 12, 1-[N,N-Bis(2-hydroxyethyl)carbamoyl]-4-[1-[3-(isopropylamino)-2-pyridyl]piperazin-4-yl-carbonyl]benzene]	46	52	86	91	52	63
CC(C)Nc1cccnc1N1CCN(C(=O)c2ccc(C(=O)NCCO)cc2)CC1 [Compound No. 1, 1-[N-(2-Hydroxyethyl)carbamoyl]-4-[1-[3-(isopropylamino)-2-pyridyl]piperazin-4-yl-carbonyl]benzene]	41	62	11	80	53	55
CC(C)Nc1cccnc1N1CCN(C(=O)c2ccc(C(=O)N3CCN(CCO)CC3)cc2)CC1 [Compound No. 26, 4-(2-Hydroxyethyl)-1-[4-[1-[3-(isopropylamino)-2-pyridyl]piperazin-4-yl-carbonyl]benzoyl]piperazine]	45	55	66	95	32	54
CC(C)Nc1cccnc1N1CCN(C(=O)c2ccc(C(=O)NC(CO)CO)cc2)CC1 [Compound No. 52, 1-[N-[Bis(hydroxymethyl)methyl]carbamoyl]-4-[1-[3-(isopropylamino)-2-pyridyl]piperazin-4-yl-carbonyl]benzene]	57	61	41	58	52	63
COCCN(CCOC)C(=O)c1ccc(C(=O)N2CCN(c3ncccc3NC(C)C)CC2)cc1 [Compound No. 62, 1-[N,N-Bis(2-methoxyethyl)carbamoyl]-4-[1-[3-(isopropylamino)-2-pyridyl]piperazin-4-yl-carbonyl]benzene]	41	58	–	–	53	60
CC(C)Nc1cccnc1N1CCN(C(=O)c2ccc(C(=O)N3CCN(CC(O)CO)CC3)cc2)CC1 (stereo not shown) [Compound No. 31, 4-(2,3-Dihydroxypropyl)-1-[4-[1-[3-(isopropylamino)-2-pyridyl]piperazin-4-yl-carbonyl]benzoyl]piperazine]	–	–	80	85	30	52
CC(C)Nc1cccnc1N1CCN(C(=O)c2ccc(C(=O)NCCCO)cc2)CC1 [Compound No. 2, 1-[N-(3-Hydroxypropyl)carbamoyl]-4-[1-[3-(isopropylamino)-2-pyridyl]piperazin-4-yl-carbonyl]benzene]	35	40	–	–	34	42
CC(O)CN(CC(C)O)C(=O)c1ccc(C(=O)N2CCN(c3ncccc3NC(C)C)CC2)cc1 (stereo not shown) [Compound No. 16, 1-[N,N-Bis(2-hydroxypropyl)carbamoyl]-4-[1-[3-(isopropylamino)-2-pyridyl]piperazin-4-yl-carbonyl]benzene]	52	65	–	–	45	78
CC(C)Nc1cccnc1N1CCN(C(=O)c2ccc(C(=O)N3CCN(CCCO)CC3)cc2)CC1 [Compound No. 27, 4-(3-Hydroxypropyl)-1-[4-[1-[3-(isopropylam-ino)-2-pyridyl]piperazin-4-yl-carbonyl]benzoyl]piperazine]	40	68	73	81	–	–
CC(C)Nc1cccnc1N1CCN(C(=O)c2ccc(C(=O)N3CCN(CCOCCO)CC3)cc2)CC1 [Compound No. 32, 4-[2-(2-Hydroxyethoxy)ethyl]-1-[4-[1-[3-(isopropylamino)-2-pyridyl]piperazin-4-yl-carbonyl]benzoyl]piperazine]	27	58	–	–	40	71
CC(C)Nc1cccnc1N1CCN(C(=O)c2ccc(C(=O)N(C)CCO)cc2)CC1 [Compound No. 5, 1-[N-(2-Hydroxyethyl)-N-methylcarbamoyl]-4-[1-[3-(isopropylamino)-2-pyridyl]piperazin-4-yl-carbonyl]benzene]	43	71	–	–	40	48
CCN(CCO)C(=O)c1ccc(C(=O)N2CCN(c3ncccc3NC(C)C)CC2)cc1 [Compound No. 6, 1-[N-Ethyl-N-(2-hydroxyethyl)carbamoyl]-4-[1-[3-(isopropylamino)-2-pyridyl]piperazin-4-yl-carbonyl]benzene]	–	–	55	83	30	51
CC(C)Nc1cccnc1N1CCN(C(=O)c2ccc(C(=O)N[C@@H](CO)C(C)C)cc2)CC1 [Compound No. 39, 1-[N-[(1R)-2-Hydroxy-1-(1-methylethyl)ethyl]carbamoyl]-4-[1-[3-(isopropylamino)-2-pyridyl]piperazin-4-yl-carbonyl]benzene]	25	75	–	–	30	78
